Laboratory results as given in US20110044938A1 (NYCOMED GMBH, priority 2006, published 2011).

Legend:
[1] = tested on: subclones of RKO colon adenocarcinoma cells (RKOp27 or RKOp21) arrested by Ponasterone A; experiment: Alamar Blue cell viability assay, cell cycle specific mode of action: cells arrested by ectopic p27Kip1 induced by Ponasterone A versus proliferating cells; assay type: cell-based; details: Homo sapiens, RKO p27 induced (arrested) cells, 10 μM Ponasterone A, 72 hours, value = class bound given in Table A, read-out: −logIC50 RKO p27 induced (arrested) (converted)
Procedure, shortened: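 RKOp27 or RKOp21 cells, 15000/well in DMEM/10% FCS, either arrested by p27Kip1 induced with 10 μM Ponasterone A or proliferating without inducer; compound added after 24 h, 72 h at 37° C. Alamar Blue fluorescence (544/590 nm), viability as % of untreated cells; −log IC50 reported.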

[2] = tested on: RKO (RKOp27) human colon adenocarcinoma cells; experiment: Alamar Blue cell viability assay, anti-proliferative/cytotoxic activity on proliferating RKO subclones; assay type: cell-based; details: RKOp27, 72 h, RKO p27 uninduced (proliferating) cells, value = class bound given in Table A, read-out: −logIC50 RKO p27 uninduced (proliferating) (converted)
Procedure, shortened: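 RKOp27 subclones (5000 cells/well) were exposed 24 h after seeding to semi-log compound dilutions in DMEM with 10% FCS, in quadruplicate, for 72 h at 37 °C. Viability was read by Alamar Blue fluorescence (544/590 nm) relative to untreated cells (1% DMSO medium). IC50 came from concentration-effect curves and is reported as −log IC50 [mol/l].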

SMILES	IC50 [1] [µM]	IC50 [2] [µM]
COc1cccc(CCC(=O)Nc2sc3c(c2C#N)CCC(COC(=O)NCc2cc(C)no2)C3)c1 (stereo not shown) [Example 244, (3-Methyl-isoxazol-5-ylmethyl)-carbamic acid 3-cyano-2-[3-(3-methoxy-phenyl)-propanoylamino]-4,5,6,7-tetrahydro-benzo[b]thiophen-6-ylmethyl ester]	≥ 100	≤ 0.501
COc1cccc(CCC(=O)Nc2sc3c(c2C#N)CCC(COC(=O)N2CCOCC2)C3)c1 (stereo not shown) [Example 245, Morpholine-4-carboxylic acid 3-cyano-2-[3-(3-methoxy-phenyl)-propanoylamino]-4,5,6,7-tetrahydro-benzo[b]thiophen-6-ylmethyl ester]	≥ 100	≤ 0.501
COc1cccc(CCC(=O)Nc2sc3c(c2C#N)CCC(COC(=O)N2CCCC2)C3)c1 (stereo not shown) [Example 246, Pyrrolidine-1-carboxylic acid 3-cyano-2-[3-(3-methoxy-phenyl)-propanoylamino]-4,5,6,7-tetrahydro-benzo[b]thiophen-6-ylmethyl ester]	≥ 100	≤ 0.501
COc1cccc(CCC(=O)Nc2sc3c(c2C#N)CCC(COC(=O)NCc2csc(C)n2)C3)c1 (stereo not shown) [Example 247, (2-Methyl-thiazol-4-ylmethyl)-carbamic acid 3-cyano-2-[3-(3-methoxy-phenyl)-propanoylamino]-4,5,6,7-tetrahydro-benzo[b]thiophen-6-ylmethyl ester]	≥ 100	≤ 0.501
CCNC(=O)OCC1CCc2c(sc(NC(=O)CCc3cccc(OC)c3)c2C#N)C1 (stereo not shown) [Example 252, Ethyl-carbamic acid 3-cyano-2-[3-(3-methoxy-phenyl)-propanoylamino]-4,5,6,7-tetrahydro-benzo[b]thiophen-6-ylmethyl ester]	≥ 100	≤ 0.501
COc1cccc(CCC(=O)Nc2sc3c(c2C#N)CCC(COC(=O)NC2CC2)C3)c1 (stereo not shown) [Example 253, Cyclopropyl-carbamic acid 3-cyano-2-[3-(3-methoxy-phenyl)-propanoylamino]-4,5,6,7-tetrahydro-benzo[b]thiophen-6-ylmethyl ester]	≥ 100	≤ 0.501
CCOc1ccccc1CCC(=O)Nc1sc2c(c1C#N)CCC(OC(=O)NCc1csc(C)n1)C2 (stereo not shown) [Example 254, (2-Methyl-thiazol-4-ylmethyl)-carbamic acid 3-cyano-2-[3-(2-ethoxy-phenyl)-propanoylamino]-4,5,6,7-tetrahydro-benzo[b]thiophen-6-yl ester]	≥ 100	≤ 0.501
Cc1cc(CNC(=O)OCC2CCc3c(sc(NC(=O)CCc4cccnc4)c3C#N)C2)no1 (stereo not shown) [Example 256, (5-Methyl-isoxazol-3-ylmethyl)-carbamic acid 3-cyano-2-(3-pyridin-3-yl-propanoylamino)-4,5,6,7-tetrahydro-benzo[b]thiophen-6-ylmethyl ester]	≥ 100	0.501 to 2
Cc1cc(CNC(=O)OCC2CCc3c(sc(NC(=O)CCc4cccnc4)c3C#N)C2)on1 (stereo not shown) [Example 257, (3-Methyl-isoxazol-5-ylmethyl)-carbamic acid 3-cyano-2-(3-pyridin-3-yl-propanoylamino)-4,5,6,7-tetrahydro-benzo[b]thiophen-6-ylmethyl ester]	≥ 100	0.501 to 2
N#Cc1c(NC(=O)CCc2cccnc2)sc2c1CCC(COC(=O)N1CCCC1)C2 (stereo not shown) [Example 258, Pyrrolidine-1-carboxylic acid 3-cyano-2-(3-pyridin-3-yl-propanoylamino)-4,5,6,7-tetrahydro-benzo[b]thiophen-6-ylmethyl ester]	≥ 100	0.501 to 2
COc1cccc(CCC(=O)Nc2sc3c(c2C#N)CCC(COC(=O)OCc2nccs2)C3)c1 (stereo not shown) [Example 262, Carbonic acid 3-cyano-2-[3-(3-methoxy-phenyl)-propanoylamino]-4,5,6,7-tetrahydro-benzo[b]thiophen-6-ylmethyl ester thiazol-2-ylmethyl ester]	≥ 50.1	0.501 to 2

Now from value to compound, other results behind:

IC50 [1] [µM]	SMILES	IC50 [2] [µM]
≥ 100	COc1cccc(CCC(=O)Nc2sc3c(c2C#N)CCC(COC(=O)NCc2cnoc2C)C3)c1 (stereo not shown) [Example 242, (5-Methyl-isoxazol-4-ylmethyl)-carbamic acid 3-cyano-2-[3-(3-methoxy-phenyl)-propanoylamino]-4,5,6,7-tetrahydro-benzo[b]thiophen-6-ylmethyl ester]	≤ 0.501
≥ 100	COc1cccc(CCC(=O)Nc2sc3c(c2C#N)CCC(COC(=O)NCc2ccno2)C3)c1 (stereo not shown) [Example 243, Isoxazol-5-ylmethyl-carbamic acid 3-cyano-2-[3-(3-methoxy-phenyl)-propanoylamino]-4,5,6,7-tetrahydro-benzo[b]thiophen-6-ylmethyl ester]	0.501 to 2
≥ 100	CCNC(=O)OC1CCc2c(sc(NC(=O)CCc3cccc(OC)c3)c2C#N)C1 (stereo not shown) [Example 248, Ethyl-carbamic acid 3-cyano-2-[3-(3-methoxy-phenyl)-propanoylamino]-4,5,6,7-tetrahydro-benzo[b]thiophen-6-yl ester]	≤ 0.501
≥ 100	COc1cccc(CCC(=O)Nc2sc3c(c2C#N)CCC(OC(=O)NC2CC2)C3)c1 (stereo not shown) [Example 249, Cyclopropyl-carbamic acid 3-cyano-2-[3-(3-methoxy-phenyl)-propanoylamino]-4,5,6,7-tetrahydro-benzo[b]thiophen-6-yl ester]	≤ 0.501
≥ 100	COc1cccc(CCC(=O)Nc2sc3c(c2C#N)CCC(OC(=O)NCCO)C3)c1 (stereo not shown) [Example 250, (2-Hydroxy-ethyl)-carbamic acid 3-cyano-2-[3-(3-methoxy-phenyl)-propanoylamino]-4,5,6,7-tetrahydro-benzo[b]thiophen-6-yl ester]	≤ 0.501
≥ 100	COc1cccc(CCC(=O)Nc2sc3c(c2C#N)CCC(OC(=O)NC2CCOCC2)C3)c1 (stereo not shown) [Example 251, (Tetrahydro-pyran-4-yl)-carbamicacid 3-cyano-2-[3-(3-methoxy-phenyl)-propanoylamino]-4,5,6,7-tetrahydro-benzo[b]thiophen-6-yl ester]	0.501 to 2
≥ 100	COC(=O)OCC1CCc2c(sc(NC(=O)CCc3cccc(OC)c3)c2C#N)C1 (stereo not shown) [Example 255, Carbonic acid 3-cyano-2-[3-(3-methoxy-phenyl)-propanoylamino]-4,5,6,7-tetrahydro-benzo[b]thiophen-6-ylmethyl ester methyl ester]	0.501 to 2
≥ 100	COc1cccc(CCC(=O)Nc2sc3c(c2C#N)CCC(OC(=O)NCc2cccnc2)C3)c1 (stereo not shown) [Example 259, Pyridin-3-ylmethyl-carbamic acid 3-cyano-2-[3-(3-methoxy-phenyl)-propanoylamino]-4,5,6,7-tetrahydro-benzo[b]thiophen-6-yl ester]	≤ 0.501
≥ 100	COc1cccc(CCC(=O)Nc2sc3c(c2C#N)CCC(OC(=O)NCc2nccn2C)C3)c1 (stereo not shown) [Example 261, (1-Methyl-1H-imidazol-2-ylmethyl)-carbamic acid 3-cyano-2-[3-(3-methoxy-phenyl)-propanoylamino]-4,5,6,7-tetrahydro-benzo[b]thiophen-6-yl ester]	≤ 0.501
≥ 50.1	COc1cccc(CCC(=O)Nc2sc3c(c2C#N)CCC(OC(=O)NCCn2ccnc2)C3)c1 (stereo not shown) [Example 263, (2-Imidazol-1-yl-ethyl)-carbamic acid 3-cyano-2-[3-(3-methoxy-phenyl)-propanoylamino]-4,5,6,7-tetrahydro-benzo[b]thiophen-6-yl ester]	≤ 0.501
≥ 50.1	COc1cccc(CCC(=O)Nc2sc3c(c2C#N)CCC(OC(=O)Nc2cccnc2)C3)c1 (stereo not shown) [Example 264, Pyridin-3-yl-carbamic acid 3-cyano-2-[3-(3-methoxy-phenyl)-propanoylamino]-4,5,6,7-tetrahydro-benzo[b]thiophen-6-yl ester]	0.501 to 2
≥ 50.1	COc1cccc(CCC(=O)Nc2sc3c(c2C#N)CCC(OC(=O)NCc2cncn2C)C3)c1 (stereo not shown) [Example 265, (3-Methyl-3H-imidazol-4-ylmethyl)-carbamic acid 3-cyano-2-[3-(3-methoxy-phenyl)-propanoylamino]-4,5,6,7-tetrahydro-benzo[b]thiophen-6-yl ester]	≤ 0.501
≥ 50.1	COc1cccc(CCC(=O)Nc2sc3c(c2C#N)CCC(OC(=O)OCc2cncs2)C3)c1 (stereo not shown) [Example 266, Carbonic acid 3-cyano-2-[3-(3-methoxy-phenyl)-propanoylamino]-4,5,6,7-tetrahydro-benzo[b]thiophen-6-yl ester thiazol-5-ylmethyl ester]	0.501 to 2
≥ 50.1	CC(CC(=O)Nc1sc2c(c1C#N)CCC(OC(=O)NCC1CCOCC1)C2)c1ccccc1 (stereo not shown) [Example 267, (Tetrahydro-pyran-4-ylmethyl)-carbamic acid 3-cyano-2-(3-phenyl-butanoylamino)-4,5,6,7-tetrahydro-benzo[b]thiophen-6-yl ester]	≤ 0.501
≥ 100	COc1cccc(C(C)CC(=O)Nc2sc3c(c2C#N)CCC(OC(=O)NCc2cccnc2)C3)c1 (stereo not shown) [Example 268, Pyridin-3-ylmethyl-carbamic acid 3-cyano-2-[3-(3-methoxy-phenyl)-butanoylamino]-4,5,6,7-tetrahydro-benzo[b]thiophen-6-yl ester]	0.501 to 2
